Experimental data: PubChem BioAssay AID1963972 (Molecular Pharmacology Branch, DTP, NCI, 2024)

Test system: 945468-187-T-J2-PDC spheroids viability
Test: Anticancer human tumor 945468-187-T-J2-PDC patient-derived rectal carcinoma cell line growth inhibition [PI3K]
Conditions: spheroids with HUVEC and MSC; for IC50: curve of first compound; for viability, T/C: stronger effect = lower value
Method in brief: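 Combination activity was assessed by viability in multicellular tumor spheroids carrying HUVEC and MSC components. Agents were tested with PI3K inhibitors from a Cmax-based top dose (or 10 microM) downward in half-log increments.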

[1] = second compound 0.00316 µM, first compound 0.0316 µM
[2] = second compound 0.00316 µM, first compound 0.1 µM
[3] = second compound 0.00316 µM, first compound 0.316 µM
[4] = second compound 0.00316 µM, first compound 1 µM
[5] = second compound 0.00316 µM, first compound 3.16 µM
[6] = second compound 0.00316 µM, first compound 10 µM
[7] = second compound 0.01 µM, first compound 0.0316 µM
[8] = second compound 0.01 µM, first compound 0.1 µM
[9] = second compound 0.01 µM, first compound 0.316 µM
[10] = second compound 0.01 µM, first compound 1 µM
[11] = second compound 0.01 µM, first compound 3.16 µM
[12] = second compound 0.01 µM, first compound 10 µM
[13] = second compound 0.0316 µM, first compound 0.0316 µM
[14] = second compound 0.0316 µM, first compound 0.1 µM
[15] = second compound 0.0316 µM, first compound 0.316 µM
[16] = second compound 0.0316 µM, first compound 1 µM
[17] = second compound 0.0316 µM, first compound 3.16 µM
[18] = second compound 0.0316 µM, first compound 10 µM
[19] = second compound 0.1 µM, first compound 0.0316 µM
[20] = second compound 0.1 µM, first compound 0.1 µM
[21] = second compound 0.1 µM, first compound 0.316 µM
[22] = second compound 0.1 µM, first compound 1 µM
[23] = second compound 0.1 µM, first compound 3.16 µM
[24] = second compound 0.1 µM, first compound 10 µM
[25] = second compound 0.316 µM, first compound 0.0316 µM
[26] = second compound 0.316 µM, first compound 0.1 µM
[27] = second compound 0.316 µM, first compound 0.316 µM
[28] = second compound 0.316 µM, first compound 1 µM
[29] = second compound 0.316 µM, first compound 3.16 µM
[30] = second compound 0.316 µM, first compound 10 µM
[31] = second compound 1 µM, first compound 0.0316 µM
[32] = second compound 1 µM, first compound 0.1 µM
[33] = second compound 1 µM, first compound 0.316 µM
[34] = second compound 1 µM, first compound 1 µM
[35] = second compound 1 µM, first compound 3.16 µM
[36] = second compound 1 µM, first compound 10 µM
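Further: spheroids exposed to compounds for seven days before reading.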

Cn1ncc(Cl)c1-c1cc(C(=O)NC(CN)Cc2cccc(F)c2)sc1Cl (centres undefined) + CC(Nc1ccc2c(c1)OCCn1cc(N3C(=O)OCC3C(F)F)nc1-2)C(N)=O gave an IC50 (second compound 0.00316 µM) greater than 10 µM, an IC50 (second compound 0.01 µM) greater than 10 µM and an IC50 (second compound 0.0316 µM) greater than 10 µM. It also gave an IC50 (second compound 0.1 µM) greater than 10 µM, an IC50 (second compound 0.316 µM) greater than 10 µM and an IC50 (second compound 1 µM) greater than 10 µM. It also gave a viability, T/C [1] of 82%, a viability, T/C [2] of 76.6% and a viability, T/C [3] of 66.5%. The viability, T/C [4] was 70%, the viability, T/C [5] was 58.5% and the viability, T/C [6] was 73.8%. The viability, T/C [7] was 80.1%, the viability, T/C [8] was 75.4% and the viability, T/C [9] was 95.7%. For the same compound, the viability, T/C [10] was 75.8%, the viability, T/C [11] was 66.7% and the viability, T/C [12] was 95.7%. For the same compound, the viability, T/C [13] was 99.8%, the viability, T/C [14] was 88.3% and the viability, T/C [15] was 95.9%. The viability, T/C [16] was 71.6%, the viability, T/C [17] was 62.3% and the viability, T/C [18] was 96%. It also gave a viability, T/C [19] of 93.2%, a viability, T/C [20] of 86.1% and a viability, T/C [21] of 78.4%. The viability, T/C [22] was 71.8%, the viability, T/C [23] was 62.2% and the viability, T/C [24] was 81.5%. For the same compound, the viability, T/C [25] was 70.6%, the viability, T/C [26] was 79.5% and the viability, T/C [27] was 77.1%. It also gave a viability, T/C [28] of 83.9%, a viability, T/C [29] of 63.6% and a viability, T/C [30] of 65.4%. It also gave a viability, T/C [31] of 70.3%, a viability, T/C [32] of 56.6% and a viability, T/C [33] of 68.5%. For the same compound, the viability, T/C [34] was 74%, the viability, T/C [35] was 39.6% and the viability, T/C [36] was 66.4%.

With Cn1nccc1Nc1nccc(-c2ccn(C(CO)c3ccc(Cl)c(F)c3)c(=O)c2)n1 (centres undefined) + CC(Nc1ccc2c(c1)OCCn1cc(N3C(=O)OCC3C(F)F)nc1-2)C(N)=O the IC50 (second compound 0.00316 µM) was greater than 10 µM, the IC50 (second compound 0.01 µM) was greater than 10 µM and the IC50 (second compound 0.0316 µM) was greater than 10 µM. It also gave an IC50 (second compound 0.1 µM) greater than 10 µM, an IC50 (second compound 0.316 µM) greater than 10 µM and an IC50 (second compound 1 µM) greater than 10 µM. It also gave a viability, T/C [1] of 92.2%, a viability, T/C [2] of 114% and a viability, T/C [3] of 88.5%. For the same compound, the viability, T/C [4] was 102%, the viability, T/C [5] was 90.7% and the viability, T/C [6] was 79.9%. It also gave a viability, T/C [7] of 124%, a viability, T/C [8] of 109% and a viability, T/C [9] of 101%. The viability, T/C [10] was 89.1%, the viability, T/C [11] was 91.9% and the viability, T/C [12] was 74.8%. It also gave a viability, T/C [13] of 118%, a viability, T/C [14] of 102% and a viability, T/C [15] of 92.6%. The viability, T/C [16] was 80%, the viability, T/C [17] was 83.6% and the viability, T/C [18] was 77.6%. The viability, T/C [19] was 113%, the viability, T/C [20] was 90.6% and the viability, T/C [21] was 124%. The viability, T/C [22] was 111%, the viability, T/C [23] was 101% and the viability, T/C [24] was 73.9%. For the same compound, the viability, T/C [25] was 74.3%, the viability, T/C [26] was 105% and the viability, T/C [27] was 86.5%. For the same compound, the viability, T/C [28] was 83%, the viability, T/C [29] was 85% and the viability, T/C [30] was 81.7%. The viability, T/C [31] was 79.2%, the viability, T/C [32] was 72.4% and the viability, T/C [33] was 84.3%. It also gave a viability, T/C [34] of 89.1%, a viability, T/C [35] of 75.5% and a viability, T/C [36] of 83.5%.
